Results from patent US20130310428A1, “THERMO-STABLE, ARSENIC-FREE SYNERGISTIC BIOCIDE CONCENTRATE COMPOSITION FOR POLYMER MATRICES AND PROCESS FOR PREPARING SAME” (ISP INVESTMENTS INC., priority 2010, published 2013).

Tests used:
Type in all cases: cell-based
[1] = tested on: mixture of Aspergillus niger (ATCC 9642), Aureobasidium pullulans (ATCC 15233), Chaetomium globosum (ATCC 6205), Penicillium funiculosum (ATCC 11797) and …; assay: Fungal resistance ASTM G21 in wall covering formulation; parameters: key: 0 is no growth; 1 is traces of growth (less than 10%); 2 is light growth (10-30%); 3 is medium growth (30-60%); 4 is maximum growth (more than 60%); settings: growth rating after 4 weeks
Method: (§1) Plastic samples containing the biocide concentrate composition containing antioxidant can be prepared by mixing with commercially available flexible PVC and processing at 175° C. in a brabender. The samples are pressed to form coupons for testing purposes. A sample containing no biocide is also prepared to serve as a negative control against the samples of the present invention.
(§2) Fungal resistance tests are conducted according to ASTM G-21. Briefly, a fungal inoculum containing a mixture of Aspergillus niger (ATCC 9642), Aureobasidium pullulans (ATCC 15233), Chaetomium globosum (ATCC 6205), Penicillium funiculosum (ATCC 11797) and Trichoderma virens (ATCC 9645) is prepared to obtain a final spore concentration of about 10^5 spores/ml. The samples (in triplicate) are placed on Petri-dishes containing nutrient salts agar and incubated with the spore suspension. The samples are then incubated at 28° C. for 4 weeks and rated weekly. The fungal growth of the samples is rated on a scale of 0 to 4 where: 0 is no growth, 1 is traces of growth (less than 10%); 2 is light growth (10-30%); 3 is medium growth (30-60%) and 4 is maximum growth (more than 60%). The ratings shown in Tables 1 to 3 correspond to those at the end of the test i.e., on 4th week for three different compositions of combination of biocidal agents.
A wall covering formulation is employed for evaluating the efficacy of the present biocide concentrate composition. The individual and synergistic biocidal compositions respectively IPBC, Folpet, OBPA, Folpet+IPBC, and Folpet+TBZ are added and processed in the brabender as disclosed in Example 1. The efficacy data for each sample was tested according to ASTM G21. Growth ratings after 4 weeks are described in the following Table 5.

[2] = tested on: mixture of A. niger (ATCC 9642) and P. funiculosum (ATCC 11797); assay: Zone of Inhibition, flexible PVC coupons on seeded Malt agar; parameters: key: A zone of inhibition around the sample is rated as “+”; The absence of zone of inhibition is rated as “−”; settings: 4 weeks
Method: as §1
Briefly a fungal inoculum containing a mixture of A. niger (ATCC 9642) and P. funiculosum (ATCC 11797) is prepared. The spore suspension is added to molten Malt agar to a final concentration of 10^4-10^5 spores/ml, poured onto the petri-dishes and allowed to dry. The samples are placed on the surface of the seeded agar and incubated at 28° C. for 4 weeks. A zone of inhibition around the sample is rated as “+”. The absence of zone of inhibition is rated as “−”. The results are shown in Tables 1 to 3 for three different combinations of biocidal agents.

[3] = tested on: mixture of Aspergillus niger (ATCC 9642), Aureobasidium pullulans (ATCC 15233), Chaetomium globosum (ATCC 6205), Penicillium funiculosum (ATCC 11797) and …; assay: Fungal resistance test ASTM G-21, flexible PVC coupons; parameters: key: 0 is no growth; 1 is traces of growth (less than 10%); 2 is light growth (10-30%); 3 is medium growth (30-60%); 4 is maximum growth (more than 60%); settings: rating at 4th week
Method: as §1, §2

[4] = tested on: mixture of Aspergillus niger (ATCC 9642), Aureobasidium pullulans (ATCC 15233), Chaetomium globosum (ATCC 6205), Penicillium funiculosum (ATCC 11797) and …; assay: Fungal resistance ASTM G21 in swimming pool liner formulation; parameters: key: 0 is no growth; 1 is traces of growth (less than 10%); 2 is light growth (10-30%); 3 is medium growth (30-60%); 4 is maximum growth (more than 60%); settings: growth rating after 4 weeks
Method: as §1, §2
A swimming pool liner formulation is selected. The individual and synergistic biocidal compositions respectively IPBC, Folpet, OBPA and Folpet+IPBC are added and processed in the brabender as described in Example 1. The efficacy data for each sample is tested according to ASTM G21. Growth ratings after 4 weeks are described in the following Table 4.

[5] = tested on: Streptoverticillium reticulum (ATCC 25607); assay: Pink Stain test ASTM E1428, flexible PVC coupons; parameters: key: 0 is no stain; 1 is a trace of stain (less than 10%); 2 is light stain (10-30%); 3 is medium stain (30-50%); 4 is maximum stain (more than 50%); settings: 14 days
Method: as §1
Pink Stain tests are conducted according to ASTM E1428. Briefly, an inoculum containing the microorganism Streptoverticillium reticulum (ATCC 25607) is prepared. The inoculum is streaked onto the surface of Yeast Malt Extract Agar. The samples (in triplicate) are placed on the inoculated agar and incubated at 28° C. for 14 days. The degree of staining is rated on a scale of 0-4 where: 0 is no stain; 1 is a trace of stain (less than 10%); 2 is light stain (10-30%); 3 is medium stain (30-50%) and 4 is maximum stain (more than 50%). The ratings of the pink stain test are disclosed in Tables 1 to 3 for three different synergistic biocide compositions.

Compound	Fungal Resistance Test ([1]; Quantity 2000 ppm)	Zone inhibition ([2]; Quantity 3000 ppm)	Fungal Resistance Test ([3]; Quantity 3000 ppm)	Fungal Resistance Test ([4]; Quantity 2000 ppm)	Pink Stain ([5]; Quantity 3000 ppm)	Fungal Resistance Test ([1]; Quantity 1000 ppm)	Zone inhibition ([2]; Quantity 500 ppm)	Fungal Resistance Test ([3]; Quantity 500 ppm)	Fungal Resistance Test ([4]; Quantity 500 ppm)	Pink Stain ([5]; Quantity 500 ppm)	Fungal Resistance Test ([1]; Quantity 600 ppm)	Fungal Resistance Test ([4]; Quantity 400 ppm)
O=C1c2ccccc2C(=O)N1SC(Cl)(Cl)Cl [Folpet, trichloromethyl-thio-phthalimide]	3 (3 is medium growth (30-60%))	−	1 (1 is traces of growth (less than 10%))	1 (1 is traces of growth (less than 10%))	0							
CCCCNC(=O)OCC#CI [IPBC, 3-iodo-2-propynylbutyl-carbamate]						2 (2 is light growth (10-30%))	+	1 (1 is traces of growth (less than 10%))	1 (1 is traces of growth (less than 10%))	2 (2 is light stain (10-30%))		
c1ccc2c(c1)Oc1ccccc1[As]2O[As]1c2ccccc2Oc2ccccc21 [OBPA, 10,10-oxybisphenoxarsine]							+	0		0	0	0
CCCCCCCCn1sccc1=O [OIT, 2-Octyl-4-isothiazolin-3-one]							−	1 (1 is traces of growth (less than 10%))		1 (1 is a trace of stain (less than 10%))		
c1ccc2[nH]c(-c3cscn3)nc2c1 [TBZ, Thiabendazole]							−	1 (1 is traces of growth (less than 10%))		2 (2 is light stain (10-30%))		
